# From article PMC6277767, “Broad and Region-Specific Impacts of the Synthetic Cannabinoid CP 55,940 in Adolescent and Adult Female Mouse Brains” (Frontiers in Molecular Neuroscience, 2018)
# Tested on: CD1 female mouse brain lipidome
# Assay: Brain-region lipid levels (HPLC/MS/MS lipidomics) 2 h after single i.p. 3 mg/kg CP 55,940 vs vehicle
# Assay type: in vivo
# Parameters: N-arachidonoyl phenylalanine level, Mean / N-stearoyl tryptophan level, Mean / N-stearoyl proline level, Mean / N-stearoyl leucine level, Mean / N-stearoyl phenylalanine level, Mean / N-stearoyl serine level, Mean / N-stearoyl methionine level, Mean: unit: moles per gram
# Protocol: The Bloomington Institutional Animal Care and Use Committee of Indiana University reviewed and approved the animal procedures. Female mice from the CD1 strain were utilized to match our study examining THC’s effects on the brain lipidome ([Leishman et al., 2018]). Mice were given a single i.p. injection of either 3 mg/kg CP or 1:1:18 cremophor:ethanol:saline vehicle (please refer to the section “3 mg/kg CP Is Relevant for Synthetic Cannabinoid Abuse and Has Stronger Effects on the Female Mouse Brain Lipidome During Adolescence” for a justification of dose and use of female mice). Three different age groups were given injections: PND 35 and PND 50 adolescents, and adult mice (PND 113). At least eight mice in each age group received CP and at least eight received vehicle. Matching the THC study time course ([Leishman et al., 2018]), mice were sacrificed via rapid decapitation 2 h after injection. Brains were immediately removed and flash-frozen in liquid nitrogen, and then stored at -80°C until dissections were performed. Brains were dissected on an ice-cold dissection plate into the following regions: STR, HIPP, CER, THAL, CTX, HYP, MID, and STEM. These abbreviations for these brain areas will be used exclusively when discussing the results generated by these specific dissections. Each dissected area was immediately placed in liquid nitrogen and then stored at -80°C until used for lipid extraction.
# Tissue extracts were performed as previously described ([Bradshaw et al., 2006]; [Stuart et al., 2013]; [Raboune et al., 2014]; [Leishman et al., 2016a],[b], [2017], [2018]). First, samples were shock frozen in liquid nitrogen, weighed, and transferred to a centrifuge tube. The mass of the largest sample was multiplied by 50 to determine how many milliliters of HPLC-grade methanol (Fisher, Fair Lawn, NJ, United States) to add. Then, samples were spiked with 500 pmol deuterium-labeled NAGly (d8NAGly; Cayman Chemical, Ann Arbor, MI, United States). Samples were placed on ice in darkness for 2 h then individually homogenized and centrifuged at 19,000 × g for 20 min at 20°C. Supernatants were diluted with HPLC water (purified in house) to make a solution of 75% water, 25% supernatant. Lipids were partially purified on C18 solid phase extraction columns (Agilent, Palo Alto, CA, United States). A series of four elutions with 1.5 mL of 60%, 75%, 85%, and 100% methanol were collected ([Stuart et al., 2013]; [Leishman et al., 2016a],[b], [2018]).
# As previously described ([Bradshaw et al., 2006]; [Tan et al., 2006]; [Smoum et al., 2010]; [Stuart et al., 2013]; [Tortoriello et al., 2013]; [Raboune et al., 2014]; [Leishman et al., 2016a],[b], [2017], [2018]), samples were analyzed using an Applied Biosystems API 3000 triple quadrupole mass spectrometer with electrospray ionization (Foster City, CA, United States). Using an Agilent XDB-C18 reversed phase analytical column and optimized mobile phase gradients, 20 μL from each elution were chromatographed. Two Shimadzu 10ADvp pumps (Columbia, MD, United States) provided the pressure for gradient elution. Mobile phase A: 20% methanol, 80% water (v/v) and 1 mM ammonium acetate (Sigma, St. Louis, MO, United States). Mobile phase B: 100% methanol, 1 mM ammonium acetate. Every method run began with 0% mobile phase B, reached 100% mobile phase B flowing at 0.2 mL/min, and gradually returned to 0% mobile phase B.
# This screening library will be referred to as the lipidome when discussing data from this study. HPLC/MS/MS data were analyzed using Analyst software (Applied Biosystems) ([Bradshaw et al., 2006]; [Tan et al., 2006]; [Stuart et al., 2013]; [Tortoriello et al., 2013]; [Raboune et al., 2014]; [Leishman et al., 2016a],[b], [2017], [2018]). Chromatograms (Supplementary Figure 3) were generated by determining the retention time of analytes from the analytical column with a [M-1] or [M+1] parent peak and a fragmentation peak corresponding to the programmed values. […]
# [1] = cortex, PND 35, 3 mg/kg CP 55,940
# [2] = cortex, PND 35 adolescent female mice, 3 mg/kg CP 55,940
# [3] = hippocampus, PND 50, 3 mg/kg CP 55,940 vs Veh
smiles,measurement,setting,value
"CCCCCCC(C)(C)c1ccc([C@@H]2C[C@H](O)CC[C@H]2CCCO)c(O)c1 [CP 55,940]",N-oleoyl valine Magnitude (x Veh level),[1],1.33 x Veh level
same,N-palmitoyl leucine Direction (rel to Veh),[1],↑
same,"N-palmitoyl leucine, Magnitude (x Veh level)",[1],1.52 x Veh level
same,N-palmitoyl serine Direction (rel to Veh),[1],↓
same,"N-palmitoyl serine, Magnitude (x Veh level)",[1],0.77 x Veh level
same,N-palmitoyl tyrosine Direction (rel to Veh),[1],↑
same,N-palmitoyl tyrosine Magnitude (x Veh level),[1],1.25 x Veh level
same,N-palmitoyl valine Direction (rel to Veh),[1],↑
same,N-palmitoyl valine Magnitude (x Veh level),[1],1.57 x Veh level
same,N-stearoyl serine Direction (rel to Veh),[1],↓
same,N-stearoyl serine Magnitude (x Veh level),[1],0.84 x Veh level
same,N-stearoyl tyrosine Direction (rel to Veh),[1],↑
same,N-stearoyl tyrosine Magnitude (x Veh level),[1],1.46 x Veh level
same,N-stearoyl valine Direction (rel to Veh),[1],↑
same,N-stearoyl valine Magnitude (x Veh level),[1],1.32 x Veh level
same,PGF2α Direction (rel to Veh),[1],↑
same,PGF2α Magnitude (x Veh level),[1],1.19 x Veh level
same,phosphoLEA Direction (rel to Veh),[1],↑
same,phosphoLEA Magnitude (x Veh level),[1],1.51 x Veh level
same,"2-arachidonoyl glycerol level, Mean",[2],1.2E-09
same,"2-linoleoyl glycerol level, Mean",[2],1.12E-10
same,"2-oleoyl glycerol level, Mean",[2],5.02E-09
same,"2-palmitoyl glycerol level, Mean",[2],5.49E-09
same,"6-ketoPGF1α level, Mean",[2],5.64E-12
same,"Arachidonic acid level, Mean",[2],1.78E-09
same,"Linoleic acid level, Mean",[2],6.06E-10
same,"N- stearoyl valine level, Mean",[2],1.46E-12
same,"N-arachidonoyl GABA level, Mean",[2],2.26E-11
same,"N-arachidonoyl alanine level, Mean",[2],2.81E-12
same,"N-arachidonoyl dopamine level, Mean",[2],BDL
same,"N-arachidonoyl ethanolamine level, Mean",[2],1.13E-10
same,"N-arachidonoyl glycine level, Mean",[2],1.35E-11
same,"N-arachidonoyl methionine level, Mean",[2],2.69E-13
same,"N-arachidonoyl phenylalanine level, Mean",[2],7.25E-13
same,"N-arachidonoyl proline level, Mean",[2],BDL
same,"N-arachidonoyl serine level, Mean",[2],2.41E-12
same,"N-arachidonoyl taurine level, Mean",[2],1.3E-10
same,"N-arachidonoyl tryptophan level, Mean",[2],BDL
same,"N-arachidonoyl tyrosine level, Mean",[2],8.47E-13
same,"N-docosahexaenoyl GABA level, Mean",[2],4.81E-12
same,"N-docosahexaenoyl alanine level, Mean",[2],7.37E-13
same,"N-docosahexaenoyl ethanolamine level, Mean",[2],1.21E-10
same,"N-docosahexaenoyl glycine level, Mean",[2],1.18E-12
same,"N-docosahexaenoyl leucine level, Mean",[2],1.02E-12
same,"N-docosahexaenoyl phenylalanine level, Mean",[2],5.48E-13
same,"N-docosahexaenoyl proline level, Mean",[2],BDL
same,"N-docosahexaenoyl serine level, Mean",[2],5.64E-12
same,"N-docosahexaenoyl tryptophan level, Mean",[2],BDL
same,"N-docosahexaenoyl tyrosine level, Mean",[2],5.7E-13
same,"N-docosahexaenoyl valine level, Mean",[2],2.57E-13
same,"N-linoleoyl GABA level, Mean",[2],3.78E-12
same,"N-linoleoyl alanine level, Mean",[2],6.3E-13
same,"N-linoleoyl ethanolamine level, Mean",[2],2.31E-10
same,"N-linoleoyl glycine level, Mean",[2],3.61E-13
same,"N-linoleoyl leucine level, Mean",[2],1.58E-13
same,"N-linoleoyl phenylalanine level, Mean",[2],1.48E-13
same,"N-linoleoyl proline level, Mean",[2],BDL
same,"N-linoleoyl serine level, Mean",[2],1.38E-11
same,"N-linoleoyl tryptophan level, Mean",[2],BDL
same,"N-nervonoyl valine level, Mean",[2],BDL
same,"N-oleoyl GABA level, Mean",[2],9.1E-12
same,"N-oleoyl alanine level, Mean",[2],2.8E-12
same,"N-oleoyl dopamine level, Mean",[2],BDL
same,"N-oleoyl ethanolamine level, Mean",[2],4.68E-10
same,"N-oleoyl glycine level, Mean",[2],5.53E-12
same,"N-oleoyl leucine level, Mean",[2],4.34E-13
same,"N-oleoyl methionine level, Mean",[2],4.2E-13
same,"N-oleoyl phenylalanine level, Mean",[2],2.01E-12
same,"N-oleoyl serine level, Mean",[2],5.9E-11
same,"N-oleoyl tyrosine level, Mean",[2],6.76E-13
same,"N-oleoyl valine level, Mean",[2],4.65E-13
same,"N-palmitoyl GABA level, Mean",[2],1.28E-11
same,"N-palmitoyl alanine level, Mean",[2],4.96E-12
same,"N-palmitoyl ethanolamine level, Mean",[2],1.43E-10
same,"N-palmitoyl glycine level, Mean",[2],1.28E-11
same,"N-palmitoyl leucine level, Mean",[2],1.76E-12
same,"N-palmitoyl methionine level, Mean",[2],1.41E-12
same,"N-palmitoyl phenylalanine level, Mean",[2],3.73E-12
same,"N-palmitoyl proline level, Mean",[2],7.7E-14
same,"N-palmitoyl serine level, Mean",[2],1.08E-11
same,"N-palmitoyl tryptophan level, Mean",[2],9.75E-13
same,"N-palmitoyl tyrosine level, Mean",[2],1.99E-12
same,"N-palmitoyl valine level, Mean",[2],1.52E-12
same,"N-stearoyl GABA level, Mean",[2],1.48E-11
same,"N-stearoyl alanine level, Mean",[2],1.04E-11
same,"N-stearoyl ethanolamine level, Mean",[2],5.63E-11
same,"N-stearoyl glycine level, Mean",[2],7.24E-12
same,"N-stearoyl leucine level, Mean",[2],1.55E-12
same,"N-stearoyl methionine level, Mean",[2],1.68E-12
same,"N-stearoyl phenylalanine level, Mean",[2],3.37E-12
same,"N-stearoyl proline level, Mean",[2],3.31E-14
same,"N-stearoyl serine level, Mean",[2],1.35E-11
same,"N-stearoyl tryptophan level, Mean",[2],3.26E-12
same,"N-stearoyl tyrosine level, Mean",[2],3.04E-13
same,"Oleic acid level, Mean",[2],6.83E-09
same,"PGE2 level, Mean",[2],4.31E-10
same,"PhosphoLEA level, Mean",[2],8.98E-12
same,2-linoleoyl glycerol Direction (relative to Veh),[3],↓
same,2-linoleoyl glycerol Magnitude (x Veh level),[3],0.73 x Veh level
same,6-ketoPGF1α Direction (relative to Veh),[3],↑
same,6-ketoPGF1α Magnitude (x Veh level),[3],1.46 x Veh level
same,"Linoleic acid, Direction (relative to Veh)",[3],↓
